The text below walks through data of paper PMC12238850, “Molecular determinants for recognition of serotonylated chromatin” (Nucleic Acids Research, 2025).

In experiment [1] the target is 13C- and 15N-labelled Taf3-PHD finger (residues 857-924), GST removed by thrombin (Mus musculus) (UniProt Q5HZG4). Briefly: NMR titration; 0.19 mM 13C,15N-labelled Taf3-PHD, peptide added (30% to 3.6 equiv.); 298 K; 20 mM KPi pH 7.0, 150 mM KCl, 10 μM ZnCl2; koff from TITAN line-shape fits (0%, 50%, 150% peptide), 1:1 model.
The target of experiment [2] is Taf3-PHD P881E–W894F used for NMR titrations (Mus musculus) (UniProt Q5HZG4). The description is as above.
Experiment [3] relates to BPTF. Briefly: Histone peptide pull-down qMS, HeLa nuclear extract. The note with it: biotinylated H3 (1–13) peptides, FDR 0.1. The class given is binding, HeLa cells. As to the method:
(§1) Nuclear extracts of HeLa cells were prepared using a modified version of the Dignam procedure. Cytosolic and nuclear separation was validated by immunoblot using the following antibodies: for TBP the 20C7 in house mouse monoclonal and for Tubulin the DM1A monoclonal from Calbiochem (CP06) (Supplementary Fig. S5A). Biotinylated H3 (1–13) peptides immobilized on Dynabeads™ M-280 Streptavidin (Invitrogen) were incubated on a rotating wheel with 1 mg of HeLa nuclear extract overnight at 4°C in binding buffer [20 mM HEPES–KOH, pH 7.9, 300 mM NaCl, 20% glycerol, 2 mM MgCl2, 0.2 mM ethylenediaminetetraacetic acid, 0.1% NP-40, 0.5 mM DTT, and 1× cOmplete™ Protease Inhibitor Cocktail (Roche)]. The beads were then washed two times with binding buffer containing 0.5% NP-40, two times with phosphate buffered saline (PBS) containing 0.5% NP-40, and two times with plain PBS. On-bead digestion of bound proteins was performed overnight at 22°C with 0.1 μg/ml of trypsin in elution buffer (100 mM Tris–HCl, pH 7.5, 2 M urea, 10 mM DTT). […] A third of the final elution was analysed as described in [44, 45] with minor changes. For nanoflow-HPLC–MS/MS samples were analysed on an Orbitrap Fusion Lumos mass spectrometer coupled to an Easy nano-LC 1200 HPLC (Thermo Fisher Scientific). […]

The target of experiment [4] is TAF3-PHD. To be noted: read-out: expected dissociation constant (KD); cited from earlier work. Here is the method: An important link between H3K4me3 and pol II is formed by the basal transcription factor TFIID [[32], [35–37]]. TFIID is able to engage with active promoters by DNA contacts as well as by two histone-binding domains: the double bromodomains of TAF1 engaging acylated histones and the TAF3-PHD finger binding H3K4me3 [[32], [35–37]]. […] Binding of ... || All data were recorded at 298 K on a Bruker Avance III HD 900 MHz spectrometer equipped with a cryoprobe, unless noted otherwise. Sample for assignment verification contained 0.3 mM ^13C- and ^15N-labelled PHD finger of Taf3 (residues 857–924) in NMR buffer (20 mM KPi, pH 7.0, 150 mM KCl, 10 μM ZnCl2, 0.01% NaN3, 10% D2O) in a 5-mm NMR tube. Samples for peptide interaction studies contained 0.19 mM ^13C- and ^15N-labelled PHD in NMR buffer in 3-mm NMR tubes. Lyophilized peptides were dissolved in NMR buffer including 1 mM sodium 3-(trimethylsilyl)tetradeuteriopropanionate (TSP) into 20 mM stoc ... || Overall, we propose that serotonin recognition is governed by edge–face CH–π interactions with either aromatic residues or prolines. Consistent with our proposal, CHD1 contains aromatic residues at positions Y295 and Y406, either of which could orient to engage with H3Q5ser explaining the preference of CHD1 for serotonin (Supplementary Fig. S15C). […]

For experiment [5], the system named is TFIID. Briefly: Histone peptide pull-down qMS, HeLa nuclear extract. The experiment is classed as binding, HeLa cells. The note with it: biotinylated H3 (1–13) peptides, overnight at 4°C, 300 mM NaCl, pH 7.9, qMS, FDR 0.1. As to the method:
as §1

Experiment [6] deals with T1, Taf3-PHD (residues 857–924) (Mus musculus, UniProt Q5HZG4).
T1 construct: PHD finger of Taf3 (residues 857–924) in NMR buffer; GST (N, cleaved yes); made in house; host or cells: E. coli BL21(DE3), M9 minimal medium (13C/15N)
T1 sequence (Q5HZG4 857-924): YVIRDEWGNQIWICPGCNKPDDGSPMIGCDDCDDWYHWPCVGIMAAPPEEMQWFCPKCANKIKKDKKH
Briefly: NMR titration line shape analysis (TITAN), wild-type Taf3-PHD. The class given is binding. As to the method:
The ^13C- and ^15N-labelled Taf3-PHD NMR samples were purified as described above, with minor differences. A single colony of freshly transformed BL21(DE3) E. coli was grown in a synthetic M9 minimal medium (6.0 g/l Na2HPO4·2H2O, 3.0 g/l KH2PO4, 0.5 g/l NaCl, 25 mg/l MgSO4, 290 μg/l CaCl2, 1 μg/l FeSO4·7H2O, 270 μg/l ZnCl2, and 5 mg/l thiamine) containing 2.0 g/l ^13C-glucose as the only carbon source and 0.5 g/l ^15NH4Cl as the sole nitrogen source. Protein expression, lysis, and loading to Glutathione Sepharose™ column were performed as described above. The GST-tag was removed through on-column thrombin digestion by loading excess thrombin (SERVA) in wash buffer followed by overnight digestion at 4°C. The cleaved PHD moiety with a […] N-terminal extension (Gly–Ser–His–Met–Ala–Met–Ala) remaining from the thrombin cleavage site was collected from the flow-through and further purified in a Mono Q™ 10/100 GL as before and subsequently loaded to a Superdex-75 HiLoad 16/600 gel filtration column in NMR buffer (20 mM KPi, pH 7.0, 150 mM KCl, 10 μM ZnCl2) (Supplementary Fig. S1).
All data were recorded at 298 K on a Bruker Avance III HD 900 MHz spectrometer equipped with a cryoprobe, unless noted otherwise. Sample for assignment verification contained 0.3 mM ^13C- and ^15N-labelled PHD finger of Taf3 (residues 857–924) in NMR buffer (20 mM KPi, pH 7.0, 150 mM KCl, 10 μM ZnCl2, 0.01% NaN3, 10% D2O) in a 5-mm NMR tube. Samples for peptide interaction studies contained 0.19 mM ^13C- and ^15N-labelled PHD in NMR buffer in 3-mm NMR tubes. Lyophilized peptides were dissolved in NMR buffer including 1 mM sodium 3-(trimethylsilyl)tetradeuteriopropanionate (TSP) into 20 mM stock solutions. Upon dilution to 1 mM, all peptide solutions were at pH 7.0 in NMR buffer. Peptide concentrations were determined by comparing the integral of the Thr methyl signal (from T3, T6, and T11, total nine protons) to that of TSP using a quantitative 1D experiment (recycle delay 60 s) recorded at a Bruker Avance III 600 MHz spectrometer. Saturated complexes with H3K4me1/H3K4me2/H3K4me3 peptides with and without H3Q5ser were made by adding peptide to a 0.7 mM final concentration (3.6 equiv.). […] Additional samples were prepared using 30%, 50%, 80%, and 160% equiv. of peptide. All spectra were recorded and processed using Bruker Topspin and analysed using NMR-FAM Sparky and Poky.
For the H3K4me2 complexes, the resonance of G879 was excluded due to overlap and that of K875 was included. Spectra were processed using NMRPipe using exponential line broadening of 10/15 Hz in the direct/indirect dimension of the free induction decay before Fourier transform. Data were fit against a 1:1 binding model that also optimizes the ligand concentration to compensate for concentration errors. Fitting assumed an HSQC experiment using 1.2 ms for the first zz-filter delays and an additional 0.6 ms evolution at the start and end of t1 that accommodated the echo/anti-echo gradient. The average koff value and standard error from a bootstrap analysis based on 100 replicas are reported. The 95% confidence limits were estimated using a grid search fixing koff allowing for an ∼3% increase in the final residuals as based on the F-statistic given the degrees of freedom. For each koff value, the KD for the H3K4me3 peptide was restrained to fall within 100 and 400 nM to enforce compatibility to previous reported affinity to avoid unrealistically high fitted KD values at higher koff values. Of note, the quality of the fit at the confidence limit edges is visibly worse than the best fit, particularly for the high koff side. For the H3K4me3Q5ser peptide, no restraint on KD was necessary. For the H3K4me2 peptides, the KD was restrained to 5 μM maximum. Without these upper bounds for KD, slightly wider confidence limits for koff are found.

The target of experiment [7] is T2, Taf3-PHD (Mus musculus Taf3 residues 857-924), 13C- and 15N-labelled, GST removed (Mus musculus, UniProt Q5HZG4 857-924, 13C- and 15N-labelled).
T2 construct: Taf3 PHD finger, Mus musculus, residues 857-924; numbering of mouse Taf3 isoform 1, UniProt Q5HZG4; also called Taf3-PHD finger; PHD domain; source: E. coli BL21(DE3) in M9 minimal medium, purified (Glutathione Sepharose, on-column thrombin, Mono Q, Superdex-75); not shown: GST, N-terminal, cleaved
T2 sequence: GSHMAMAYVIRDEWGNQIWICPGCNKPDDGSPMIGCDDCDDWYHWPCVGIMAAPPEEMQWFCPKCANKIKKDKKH
Briefly: solution NMR structure; 0.88 mM 13C,15N Taf3-PHD with 0.88 mM H3K4me3Q5ser peptide; 20 mM KPi pH 7.0, 4 mM KCl, 10 uM ZnCl2; NOESY at 293 K; NOE distance restraints imposed with HADDOCK on the structure PDB 2K17. To be noted: both partners purified.

Read-outs that look alike come from different tables or passages of the source. Where only a bound is given, the exact number is not on record here.

Broadly, the koff is the rate constant with which the complex falls apart. Consider “H3K4me2Q5ser histone H3 tail peptide (non-biotinylated)”, for which the koff in experiment [1] came to 71 s⁻¹.
On the same count and under the same terms, as for “H3K4me2 histone H3 tail peptide (non-biotinylated)”, the figure is 207 s⁻¹.
For “H3K4me3 histone H3 tail peptide (non-biotinylated)”, the koff in experiment [1] was found to be 48.8 s⁻¹; in experiment [2], 29.6 s⁻¹.
As to “H-ARTKQ(ser)TARKSTG-NH2 [H3Q5ser, H3 tail peptide, K4 unmethylated, serotonylated glutamine 5]”, the “BPTF preference for H3Q5ser peptides” value in experiment [3] was “enhanced binding to H3Q5ser compared to the unmodified H3 peptide”.
One may read the Kd as the concentration at which binding is half-saturated. Take “H-ARTK(Me)QTARKSTG-NH2 [H3K4me1, H3 tail peptide monomethylated at lysine 4]”: the Kd in experiment [4] is greater than 200000 nM.
Turning to “H3K4me3Q5ser histone H3 tail peptide (non-biotinylated)”, the off-rate constant (koff) in experiment [1] turned out to be 16.8 s⁻¹; in experiment [2], 24.2 s⁻¹.
For `C[C@H](N)C(=O)N[C@@H](CCCNC(=N)N)C(=O)N[C@H](C(=O)N[C@@H](CCCCN(C)C)C(=O)N[C@@H](CCC(=O)NCCc1c[nH]c2ccc(O)cc12)C(=O)N[C@H](C(=O)N[C@@H](C)C(=O)N[C@@H](CCCNC(=N)N)C(=O)N[C@@H](CCCCN)C(=O)N[C@@H](CO)C(=O)N[C@H](C(=O)NCC(N)=O)[C@@H](C)O)[C@@H](C)O)[C@@H](C)O` [H3K4me2Q5ser], the “TFIID preference for H3Q5ser peptides” value in experiment [5] is given as “TFIID enrichment was most pronounced”. The off-rate (koff) in experiment [6] (pH 7) was 71 ± 2 s⁻¹; in experiment [6] (pH 7, read-out: koff 95% confidence limits), 56 to 90 s⁻¹.
`C[C@H](N)C(=O)N[C@@H](CCCNC(=N)N)C(=O)N[C@H](C(=O)N[C@@H](CCCCN(C)C)C(=O)N[C@@H](CCC(N)=O)C(=O)N[C@H](C(=O)N[C@@H](C)C(=O)N[C@@H](CCCNC(=N)N)C(=O)N[C@@H](CCCCN)C(=O)N[C@@H](CO)C(=O)N[C@H](C(=O)NCC(N)=O)[C@@H](C)O)[C@@H](C)O)[C@@H](C)O` [H3K4me2]: the off-rate constant (koff) in experiment [6] (NMR line shape fit (TITAN), 298 K, 20 mM KPi, pH 7.0, 150 mM KCl, 1:1 model, average ± standard error from bootstrap, 100 replicas, read-out: koff) was 207 ± 10 s⁻¹; in experiment [6] (NMR line shape fit (TITAN), 298 K, pH 7.0, grid search, read-out: koff 95% confidence limits), 160 to 250 s⁻¹. In addition, the Kd in experiment [4] was 1700 nM.

B1: H3K4me3Q5ser peptide, non-biotinylated: H-ARTK(Me3)Q(ser)TARKSTG-NH2 (peptide)
peptide: H-ARTK(Me3)Q(serotonyl)TARKSTG-NH2
notes: histone H3 N-terminal tail, residues 1-12 of H3K4me3Q5ser; also called H3K4me3Q5ser ligand; H3 peptide; source: synthetic peptide
Turning to B1, the binding result in experiment [7] is “binds”.
